Test results taken from US20250282799A1, “SUBSTITUTED PYRIDO[4,3-d]PYRIMIDINES AS KRAS MODULATORS” (Alterome Therapeutics, Inc., priority 2023, published 2025).
pIC50: −log10 of the molar value.

Key:
[1] = Pharmacokinetic evaluation, single dosing (oral and intravenous) in rats; type: in vivo, male Sprague-Dawley rats; set-up: unit not given here; conditions: rat, plasma
Method: Pharmacokinetic profile for test compound was measured by single dosing in male Sprague-Dawley rats. Animal weights were typically over 200 grams, and animals were allowed to acclimate to their new environment for at least 3 days prior to the initiation of any studies. One set of animals was dosed intravenous with test compound, 2 mg/kg in 20% PEG400, 10% HS-15 Solutol, 70% 50 mM citrate buffer (pH 4.0). Intravenous dosing solution concentration was 1.0 mg/mL. Time of blood sampling was 5 minutes, 15 minutes, 30 minutes, 1 hour, 2 hours, 4 hours, 8 hours, and 24 hours following intravenous dosing. Another set of animals was dosed orally with test compound, 30 mg/kg in 20% PEG400, 10% HS-15 Solutol, 70% 50 mM citrate buffer (pH 4.0). Oral dosing solution concentration was 3.0 mg/mL. Time of blood sampling was 15 minutes, 30 minutes, 1 hour, 2 hours, 4 hours, 8 hours, and 24 hours following oral dosing. Blood samples (˜0.2 mL/sample) were collected via jugular vein and placed in tubes containing Heparin-Na. The blood samples in tubes were mixed and then placed on wet ice prior to centrifugation for plasma. The blood samples were centrifuged at 4000 g for 5 minutes at 4° C. to obtain plasma. The obtained plasma was separated and stored frozen at approximately −80° C.
All the plasma samples were analyzed using a Shimadzu (DGU-405) HPLC with an API 6500+MS/MS system following the manufacturer's instructions. All the analytes were detected with positive-mode electrospray ionization (ES+). A standard curve for each test compound was generated and used to measure test compound concentrations in the rat plasma samples. Based on the time course sampling, an area under the curve (AUC) was calculated for the oral group and intravenous group. The percentage of rat bioavailability is calculated based on the equation shown below.
where F is bioavailability, AUCPO is area under curve of oral dosing, AUCIV is area under curve of intravenous dosing, DoseIV is the intravenous dose and DosePO is the oral dose. The oral dosing for the experiments presented in Table 5 was performed at 10 mg/kg unless noted otherwise.

[2] = tested on: KRAS G12V dependent lung adenocarcinoma cell line, NCI-H441; assay: Cellular pERK (Thr202/Tyr204) FRET/HTRF assay; type: cell-based; conditions: Homo sapiens
In short: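 Using a mix-and-read HTRF kit, phospho-ERK (Thr202/Tyr204) was detected in NCI-H441 lysates following 1 hr compound incubation at 37 °C, 5% CO2. Cells had been seeded overnight beforehand, and IC50 was derived by curve fitting.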

[3] = NCI-H441, pERK HTRF, NCI-H441 cells (KRAS G12V)
[4] = NCI-H441, cellular pERK (Thr202/Tyr204) HTRF, NCI-H441 cells

IV (dose 2 mg/kg) (AUC/D) (h*mg/mL) [1] | PO (AUC/D) (h*mg/mL), dose 30 mg/kg [1] | pIC50 [2, 3] | PO (dose 10 mg/kg) (AUC/D) (h*mg/mL) [1] | pIC50 [2, 4] | SMILES
1086 | 352 | > 7.30 | – | – | [2H]C([2H])([2H])Oc1c(F)ccc2cc(N)cc(-c3ncc4c(N5CCOC[C@H]6[C@H](F)[C@H]65)nc(OC([2H])([2H])[C@@]56CCCN5C[C@H](F)C6)nc4c3F)c12 [Example 90, 6-Fluoro-4-(8-fluoro-4-((1S,7S,8S)-8-fluoro-5-oxa-2-azabicyclo[5.1.0]octan-2-yl)-2-(((2R,7aS)-2-fluorotetrahydro-1H-pyrrolizin-7a(5H)-yl)methoxy-d2)pyrido[4,3-d]pyrimidin-7-yl)-5-(methoxy-d3)naphthalen-2-amine]
1401 | – | > 7.30 | 432 | – | [2H]C([2H])([2H])Oc1c(F)ccc2cc(N)cc(-c3ncc4c(N5CCCC[C@H]6[C@H](F)[C@H]65)nc(OC([2H])([2H])[C@@]56CCCN5C[C@H](F)C6)nc4c3F)c12 [Example 58, 6-Fluoro-4-(8-fluoro-4-((1S,7R,8S)-8-fluoro-2-azabicyclo[5.1.0]octan-2-yl)-2-(((2R,7aS)-2-fluorotetrahydro-1H-pyrrolizin-7a(5H)-yl)methoxy-d2)pyrido[4,3-d]pyrimidin-7-yl)-5-(methoxy-d3)naphthalen-2-amine]
129 | – | – | 0.4 | > 7.30 | [2H]C([2H])(Oc1nc(N2CCOC[C@H]3[C@H](F)[C@H]32)c2cnc(-c3cc(O)cc4ccc(Cl)c(C#C)c34)c(F)c2n1)[C@@]12CCCN1C[C@H](F)C2 [Example 260, 6-chloro-5-ethynyl-4-(8-fluoro-4-((1S,7S,8S)-8-fluoro-5-oxa-2-azabicyclo[5.1.0]octan-2-yl)-2-(((2R,7aS)-2-fluorotetrahydro-1H-pyrrolizin-7a(5H)-yl)methoxy-d2)pyrido[4,3-d]pyrimidin-7-yl)naphthalen-2-ol]
1066 | – | – | 97 | > 7.30 | [2H]C([2H])(Oc1nc(N2CCOC[C@H]3[C@H](F)[C@H]32)c2cnc(-c3cc(N)cc4ccc(Cl)c(C#C)c34)c(F)c2n1)[C@@]12CCCN1C[C@H](F)C2 [Example 267, 6-Chloro-5-ethynyl-4-(8-fluoro-4-((1S,7S,8S)-8-fluoro-5-oxa-2-azabicyclo[5.1.0]octan-2-yl)-2-(((2R,7aS)-2-fluorotetrahydro-1H-pyrrolizin-7a(5H)-yl)methoxy-d2)pyrido[4,3-d]pyrimidin-7-yl)naphthalen-2-amine]
405 | – | > 7.30 | 35 | – | [2H]C([2H])(Oc1nc(N2CCCO[C@H]3[C@H](F)[C@H]32)c2cnc(-c3cc(N)cc4cc(F)c(F)c(C#C)c34)c(F)c2n1)[C@@]12CCCN1C[C@H](F)C2 [Example 24, 5-Ethynyl-6,7-difluoro-4-(8-fluoro-4-((1R,7S,8R)-8-fluoro-2-oxa-6-azabicyclo[5.1.0]octan-6-yl)-2-(((2R,7aS)-2-fluorotetrahydro-1H-pyrrolizin-7a(5H)-yl)methoxy-d2)pyrido[4,3-d]pyrimidin-7-yl)naphthalen-2-amine]
143 | 0.5 | – | – | > 7.30 | [2H]C([2H])(Oc1nc(N2CCOC[C@H]3[C@H](F)[C@H]32)c2cnc(-c3cc(O)cc4ccc(F)c(C#C)c34)c(F)c2n1)[C@@]12CCCN1C[C@H](F)C2 [Example 217, 5-Ethynyl-6-fluoro-4-(8-fluoro-4-((1S,7S,8S)-8-fluoro-5-oxa-2-azabicyclo[5.1.0]octan-2-yl)-2-(((2R,7aS)-2-fluorotetrahydro-1H-pyrrolizin-7a(5H)-yl)methoxy-d2)pyrido[4,3-d]pyrimidin-7-yl)naphthalen-2-ol]
323 | – | > 7.30 | 22 | – | [2H]C([2H])(Oc1nc(N2CCCO[C@H]3C(F)[C@H]32)c2cnc(-c3cc(N)cc4ccc(F)c(C#C)c34)c(F)c2n1)[C@@]12CCCN1C[C@H](F)C2 (stereo in doubt) [Example 89, 5-Ethynyl-6-fluoro-4-(8-fluoro-4-((1R,7S,8R)-8-fluoro-2-oxa-6-azabicyclo[5.1.0]octan-6-yl)-2-(((2R,7aS)-2-fluorotetrahydro-1H-pyrrolizin-7a(5H)-yl)methoxy-d2)pyrido[4,3-d]pyrimidin-7-yl)naphthalen-2-amine]
